Among the test systems are NCI/ADR-RES ovarian; MOLT-4 leukemia; NCI-H226 lung; SW-620 colon; KM12 colon; HOP-62 NSCLC; NCI-H522 lung; SF-539 CNS; HCC-2998 colon; MCF7 breast.
Common to all, as to assay: NCI tumour cell line growth inhibition, 48 h

Molecules are shown by their SMILES.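 Growth conditions: 96-well plates. Treatment: test compound, 48 hours, 5 concentrations. Analysis: linear interpolation between bracketing concentrations; unreached endpoints set to highest concentration. At the GI50, growth is halved. TGI is the concentration that stops growth completely.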

In the case of `Cc1cc(-c2nc3sccn3c2/C=N/N=C(N)N)c(C)s1`, the GI50 is 17.4 µM with NCI/ADR-RES ovarian; 17.6 µM with MOLT-4 leukemia; 15.4 µM in the experiment with NCI-H226 lung; 21.8 µM in the experiment with SW-620 colon; 13.3 µM with KM12 colon; 17.4 µM in the experiment with HOP-62 NSCLC. The GI50 in the experiment on NCI-H522 lung is 15.7 µM; in the experiment with SF-539 CNS it was 14.3 µM. For the same compound, the TGI in the experiment on NCI/ADR-RES ovarian amounted to 31.6 µM; with MOLT-4 leukemia, 60.7 µM; in the experiment on NCI-H226 lung, 31.7 µM; with SW-620 colon, 54.5 µM; in the experiment on KM12 colon, 26.1 µM; with HOP-62 NSCLC, 32.1 µM. Besides, the results for the TGI in the experiment on NCI-H522 lung and with SF-539 CNS were 32 µM and 28.5 µM, respectively.

On to `C#CCOCn1cnc2c(Sc3c([N+](=O)[O-])ncn3C)ncnc21`, for which the TGI in the experiment on NCI-H226 lung, with SW-620 colon, with HCC-2998 colon, in the experiment with KM12 colon, with HOP-62 NSCLC and in the experiment on NCI-H522 lung was above 100 µM in each case.

Take `COC(=O)C1=C(O)c2cc(-c3ccccc3)c(-c3ccccc3)c(C#N)c2NC(=O)C1`: the TGI was above 100 µM in the experiment with MOLT-4 leukemia; above 100 µM in the experiment on HCC-2998 colon; above 100 µM with KM12 colon; 96.8 µM in the experiment with HOP-62 NSCLC; above 100 µM with SF-539 CNS.

Regarding `Nc1c2c(c(O)c3c1=C(CO)C=N3)=NCCS2`, the GI50 with NCI/ADR-RES ovarian was 0.256 µM; in the experiment with MOLT-4 leukemia it was 0.223 µM; in the experiment with NCI-H226 lung it was 0.199 µM; in the experiment on SW-620 colon it was 0.202 µM; in the experiment with HCC-2998 colon it was 0.169 µM; in the experiment with KM12 colon, 0.325 µM. In addition, the GI50 with HOP-62 NSCLC is 0.175 µM; with NCI-H522 lung, 0.191 µM; in the experiment on SF-539 CNS, 0.165 µM. Also, the TGI worked out at 0.824 µM with NCI/ADR-RES ovarian; 0.541 µM in the experiment with MOLT-4 leukemia; 0.471 µM in the experiment with NCI-H226 lung; 0.391 µM in the experiment with SW-620 colon; 0.329 µM with HCC-2998 colon; 1.74 µM in the experiment on KM12 colon. In addition, the TGI with HOP-62 NSCLC is 0.317 µM; in the experiment with NCI-H522 lung it was 0.43 µM; in the experiment on SF-539 CNS, 0.301 µM.

As to `CCOc1ccc(N=Cc2ccc3cc(C)ccc3n2)cc1`, the TGI is 76.7 µM in the experiment on MOLT-4 leukemia; above 100 µM in the experiment on NCI-H226 lung; above 100 µM in the experiment on SW-620 colon; above 100 µM with HCC-2998 colon; above 100 µM in the experiment with KM12 colon; above 100 µM with HOP-62 NSCLC. The TGI in the experiment with NCI-H522 lung and in the experiment with SF-539 CNS was above 100 µM throughout.

In the case of `CC(=O)CC(N)=O`, the TGI with MOLT-4 leukemia, in the experiment on NCI-H226 lung, in the experiment on SW-620 colon, in the experiment on HCC-2998 colon, in the experiment with KM12 colon and with HOP-62 NSCLC was above 100 µM throughout. Further, the TGI with NCI-H522 lung and with SF-539 CNS was above 100 µM in each case.

`O=C(O)Cc1cc(=O)[nH]c2c1/C(=N/O)CCC2`: the TGI in the experiment with MOLT-4 leukemia, in the experiment with NCI-H226 lung, in the experiment on SW-620 colon, in the experiment with HCC-2998 colon, in the experiment with KM12 colon and with NCI-H522 lung was above 100 µM each time. In the experiment with SF-539 CNS, this compound had a TGI above 100 µM.

Take `CCOC(=O)Cc1ccc2c(c1O)C(=O)c1c(ccc(CC(=O)OCC)c1O)C2=O`: the TGI in the experiment with MOLT-4 leukemia, with NCI-H226 lung, with SW-620 colon, in the experiment with HCC-2998 colon, in the experiment with KM12 colon and in the experiment with HOP-62 NSCLC was above 100 µM in each case. The TGI in the experiment with NCI-H522 lung and in the experiment on SF-539 CNS was above 100 µM in each case.

Turning to `COc1ccc2c3c([nH]c2c1[N+](=O)[O-])C(C)N(Cc1ccc([N+](=O)[O-])cc1)CC3` (stereo not given), the TGI is above 100 µM in the experiment with MOLT-4 leukemia; 42.4 µM in the experiment with NCI-H226 lung; above 100 µM in the experiment with SW-620 colon; 37.3 µM in the experiment with HCC-2998 colon; 49.6 µM with KM12 colon; 20.8 µM with NCI-H522 lung. Also, the TGI with SF-539 CNS was above 100 µM.

As to `O=C1O[C@H](c2ccccc2)[C@@H]2CC3(CCN12)OCCO3`, the TGI with MOLT-4 leukemia is above 100 µM; in the experiment on NCI-H226 lung, above 100 µM; in the experiment on SW-620 colon, above 100 µM; in the experiment with KM12 colon, above 100 µM; with HOP-62 NSCLC, above 100 µM; in the experiment with NCI-H522 lung, 7.48 µM. The TGI with SF-539 CNS was above 100 µM.

On to `CC1=C[C@]2(O)C(=O)[C@H](C)C[C@H]3[C@@H](CC[C@@](C)(O)/C=C\2C1=O)C3(C)C`, for which the TGI was above 62 µM with MOLT-4 leukemia; above 79.5 µM with NCI-H226 lung; 35.9 µM in the experiment on SW-620 colon; above 69.5 µM in the experiment on HCC-2998 colon; above 100 µM in the experiment on KM12 colon; above 70.3 µM in the experiment on HOP-62 NSCLC. Also, the TGI with NCI-H522 lung came out at 26.7 µM; with SF-539 CNS, 46.8 µM.

In the case of `O=C1C=CC(=O)C12CCc1ccccc12`, the TGI in the experiment with MOLT-4 leukemia, with NCI-H226 lung, in the experiment on SW-620 colon, with HCC-2998 colon, with KM12 colon and in the experiment with HOP-62 NSCLC was above 100 µM in each case. The TGI in the experiment with NCI-H522 lung was 33.2 µM; with SF-539 CNS, above 100 µM.

Take `CN(C)CCNC(=O)c1cccc2nc3cc(Cl)ccc3nc12`: the TGI is 2.77 µM in the experiment with MOLT-4 leukemia; 5.14 µM in the experiment on NCI-H226 lung; above 23.7 µM with SW-620 colon; 10.7 µM in the experiment on HCC-2998 colon; 15.2 µM in the experiment with KM12 colon; 5.61 µM in the experiment on HOP-62 NSCLC. For the same compound, the TGI was above 100 µM in the experiment with NCI-H522 lung and 11.4 µM in the experiment on SF-539 CNS.

Regarding `Cn1nc(-c2ccccc2)c(C(=O)/C=C/c2ccc(Cl)cc2)c(N2CCCCC2)c1=O`, the TGI with MOLT-4 leukemia was determined as 4.65 µM; with SW-620 colon, 16.6 µM; with HOP-62 NSCLC, 5.68 µM; with NCI-H522 lung, 4.26 µM; in the experiment on SF-539 CNS it was 2.98 µM.

Turning to `CC(=O)OC1CCn2nnc(CO)c21` (stereo not given), the TGI with MOLT-4 leukemia, in the experiment with NCI-H226 lung, with SW-620 colon, with HCC-2998 colon, in the experiment on KM12 colon and in the experiment on NCI-H522 lung was above 100 µM throughout. For the same compound, the TGI in the experiment with SF-539 CNS is above 100 µM.

Turning to `C=C1C(=O)OC2C1CCC(C)C1C=CC(=O)C12C` (stereo not given), the TGI stood at 10.4 µM in the experiment on MOLT-4 leukemia; 13 µM in the experiment on NCI-H226 lung; 4.68 µM in the experiment with SW-620 colon; 26.6 µM in the experiment with HCC-2998 colon; 5.96 µM in the experiment with KM12 colon; 41.1 µM in the experiment with HOP-62 NSCLC. The values for the TGI in the experiment with NCI-H522 lung, in the experiment with MCF7 breast and in the experiment on SF-539 CNS were 2.39 µM, 16.5 µM and 8.33 µM, respectively.
